The subject of experiment [1] is ARH-77 cells. In words: Cell viability assay (CellTiter-Glo), ARH-77. The experiment is classed as cell-based. Particulars: 1% FBS; for IC50: Homo sapiens, ARH-77, 24 hours incubation, read-out: Average pIC50 by molecule ARH-77 (converted). The method, boiled down:
(§1)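 Luminescent ATP readout (CellTiter-Glo) at 24 hours measured viability, expressed relative to DMSO-treated wells. Compound was added directly to the medium as a 9–12-point threefold series starting at 30 uM, at 0.5% final DMSO. The medium contained FBS reduced to 1%.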

In experiment [2] the test system is DMS 114 cells. In words: Cell viability assay (CellTiter-Glo), DMS 114. Particulars: 72 hours incubation, 10% FBS; for IC50: Homo sapiens, DMS-114, 72 h, read-out: Average pIC50 by molecule DMS 114 (converted). In kind it is cell-based. The source says: The effect of various compounds of the invention on the viability of DMS 114 cell line was investigated, using the CTG protocol described below.
DMS 114 cell line is derived from small-cell lung cancer, which is described in the literature as MCL-1 dependent lines [Yasuda Y et al. Cell Death & Disease 2020; 11: 177].
DMS 114 cells were detached with trypsin and then resuspended in growth medium containing 10% FBS and counted. Cell suspension was then adjusted to 5×10^4 cells/ml using growth medium containing 10% FBS. Afterwards, […] were seeded on 384-well plates (50 μl). Plates were then placed in the incubator overnight until treated. Next day, compounds were added using ECHO 555 liquid handler. Compound concentrations used in this assay: 1/3 dilutions starting at 30 uM (9 to 12 points).
After 72 hours of incubation, cell viability was evaluated using CellTiter-Glo Luminescent Cell Viability Assay (Promega, cat #G7572). Luminescence signal was measured using a CLARIOstar Plus Multi-Mode Microplate Reader (574-590 nm).

The target in experiment [3] is T1, [MCL-1]-[compound of formula (I)]-[CRBN/DDB1] complex (Homo sapiens, UniProt Q07820+Q96SW2). In words: HTRF ternary complex assay. The experiment is classed as binding. Particulars: ternary complex formation; read-out: HTRF ternary complex Average pEC50 by molecule (converted). A digest of the protocol: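 hMcl-1 and CRBN (mix at 48 nM and 105.6 nM) with Streptavidin-Eu cryptate and anti-6×His-d2 in PPI Europium buffer with 2 mM DTT; compounds in dose-response, 0.5% DMSO. Incubated 180 min at 25° C, TR-FRET 665/620 read. Bell-shaped curve fitted by Gaussian; EC50 reported.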

For experiment [4], the system named is MV-4-11 cells. In words: Cell viability assay (CellTiter-Glo), MV-4-11. The experiment is classed as cell-based. Particulars: 1% FBS; for IC50: Homo sapiens, MV4-11, 24 hours incubation, read-out: Average pIC50 by molecule MV-4-11 (converted). A digest of the protocol: as §1
Experiment [5] has as its system OPM-2 cells. In words: Cell viability assay (CellTiter-Glo), OPM-2. Particulars: Homo sapiens, 24 hours incubation, 1% FBS, read-out: Average pIC50 by molecule OPM-2 (converted). The experiment is classed as cell-based. The source says:
The effect of various compounds of the invention on the viability of OPM-2, MV-4-11 and ARH-77 cell lines was investigated, using the CTG protocol described below.
OPM-2 and MV-4-11 cell lines are derived from multiple myeloma and acute myeloid leukaemia, respectively. Both cell lines are described in the literature as MCL-1 dependent lines, as opposed to lymphoblast-like ARH-77 cell line, which is described as independent of MCL-1 (Tron A E et al. Nat Commun. 2018; 9: 5341; Caenepeel S et al. Cancer Discov. 2018 December; 8(12):1582-1597).
Cells (OPM-2, MV-4-11 or ARH-77) were seeded on […] in a growth medium with FBS reduced to 1%. Next, compound stocks were pre-diluted in DMSO and added directly to the cells growth medium (final DMSO concentration: 0.5%). Compound concentrations used in this assay: 1/3 dilutions starting at 30 uM (9 to 12 points).
After 24 hours of incubation, cell viability was evaluated using CellTiter-Glo Luminescent Cell Viability Assay (Promega, cat #G7572). Luminescence signal was measured using a CLARIOstar Plus Multi-Mode Microplate Reader (574-590 nm).
Results were normalized to DMSO control.

The target of experiment [6] is T1, [MCL-1]-[compound of formula (I)]-[CRBN/DDB1] complex. In words: AlphaLISA dose response ternary complex formation assay. In kind it is binding. The following applies: for EC50: read-out: AlphaLISA dose response Average pEC50 by molecule (converted). The method, boiled down:
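EC50 comes from dose–response of AlphaLISA luminescence (excitation 680, emission 615 nm), normalised between DMSO background and an internal positive control, with concentrations past the hook point dropped. Ternary complex formed by mixing bead-bound biotin-hMCL-1 and His-CRBN/DDB1 (protein solutions 40 and 200 nM) with compound in 2% DMSO, 30 min, 25 °C.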

T1 sequence (Q07820 whole entry): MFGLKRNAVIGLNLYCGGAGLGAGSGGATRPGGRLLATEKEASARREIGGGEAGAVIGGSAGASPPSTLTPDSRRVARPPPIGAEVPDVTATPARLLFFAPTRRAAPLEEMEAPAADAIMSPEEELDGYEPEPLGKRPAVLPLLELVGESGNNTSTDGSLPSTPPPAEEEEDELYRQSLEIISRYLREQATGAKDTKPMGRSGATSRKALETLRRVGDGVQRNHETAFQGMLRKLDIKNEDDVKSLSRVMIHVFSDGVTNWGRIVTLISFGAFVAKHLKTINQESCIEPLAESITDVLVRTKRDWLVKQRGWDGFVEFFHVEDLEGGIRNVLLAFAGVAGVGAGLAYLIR
T1 sequence (Q96SW2 whole entry): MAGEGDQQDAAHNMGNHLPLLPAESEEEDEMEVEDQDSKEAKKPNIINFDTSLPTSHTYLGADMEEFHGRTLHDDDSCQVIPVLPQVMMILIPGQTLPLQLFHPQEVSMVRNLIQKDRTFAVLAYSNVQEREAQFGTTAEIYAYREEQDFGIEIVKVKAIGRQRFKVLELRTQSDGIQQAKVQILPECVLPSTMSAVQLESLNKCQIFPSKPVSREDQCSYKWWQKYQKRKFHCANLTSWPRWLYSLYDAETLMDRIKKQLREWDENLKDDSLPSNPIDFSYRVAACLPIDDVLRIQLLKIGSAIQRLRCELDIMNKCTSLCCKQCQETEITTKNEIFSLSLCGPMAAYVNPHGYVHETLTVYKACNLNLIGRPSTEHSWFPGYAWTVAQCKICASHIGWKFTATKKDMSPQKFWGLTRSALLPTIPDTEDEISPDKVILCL
T1 sequence (Q16531 whole entry partner): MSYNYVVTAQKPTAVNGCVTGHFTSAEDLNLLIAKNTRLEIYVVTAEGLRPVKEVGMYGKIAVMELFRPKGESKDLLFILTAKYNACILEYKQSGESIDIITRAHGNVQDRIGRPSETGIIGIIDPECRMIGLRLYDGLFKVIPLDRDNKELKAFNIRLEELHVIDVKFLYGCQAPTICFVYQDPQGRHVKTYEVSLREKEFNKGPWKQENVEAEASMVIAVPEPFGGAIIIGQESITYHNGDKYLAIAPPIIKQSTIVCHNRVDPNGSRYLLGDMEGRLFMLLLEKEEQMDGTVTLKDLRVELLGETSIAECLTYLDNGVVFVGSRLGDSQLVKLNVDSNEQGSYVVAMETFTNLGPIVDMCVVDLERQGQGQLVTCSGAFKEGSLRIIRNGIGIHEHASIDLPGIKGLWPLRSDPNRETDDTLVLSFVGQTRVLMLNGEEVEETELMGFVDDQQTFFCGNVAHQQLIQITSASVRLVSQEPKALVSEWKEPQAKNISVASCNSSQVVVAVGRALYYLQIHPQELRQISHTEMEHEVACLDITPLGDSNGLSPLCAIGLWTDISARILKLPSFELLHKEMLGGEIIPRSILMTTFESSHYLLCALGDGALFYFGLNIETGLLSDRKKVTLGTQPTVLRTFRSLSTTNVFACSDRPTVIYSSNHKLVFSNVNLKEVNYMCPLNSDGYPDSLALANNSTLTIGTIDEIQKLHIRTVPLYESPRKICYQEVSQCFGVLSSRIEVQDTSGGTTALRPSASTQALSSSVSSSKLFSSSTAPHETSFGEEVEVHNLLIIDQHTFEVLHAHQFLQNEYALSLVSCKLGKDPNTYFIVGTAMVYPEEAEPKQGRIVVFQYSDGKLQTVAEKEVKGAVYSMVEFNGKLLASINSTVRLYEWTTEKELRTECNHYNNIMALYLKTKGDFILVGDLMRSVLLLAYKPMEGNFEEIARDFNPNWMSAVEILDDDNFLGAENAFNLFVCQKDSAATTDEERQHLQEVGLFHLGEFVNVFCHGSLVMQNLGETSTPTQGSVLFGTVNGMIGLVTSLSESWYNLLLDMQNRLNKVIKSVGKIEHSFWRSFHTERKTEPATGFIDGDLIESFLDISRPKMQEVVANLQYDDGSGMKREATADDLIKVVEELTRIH

For `Cc1nn(C)c(C)c1-c1c(Cl)ccc2c(CCCOc3cccc4cc(F)ccc34)c(C(=O)O)n(CCN3CCN(C4CCN(c5cc6c(cc5F)C(=O)N(C5CCC(=O)NC5=O)C6=O)CC4)CC3)c12` (centres unmarked) [Compound 338, 6-Chloro-1-[2-(4-{1-[2-(2,6-dioxopiperidin-3-yl)-6-fluoro-1,3-dioxo-2,3-dihydro-1H-isoindol-5-yl]piperidin-4-yl}piperazin-1-yl)ethyl]-3-{3-[(6-fluoronaphthalen-1-yl)oxy]propyl}-7-(1,3,5-trimethyl-1H-pyrazol-4-yl)-1H-indole-2-carboxylic acid], the IC50 in experiment [1] was over 10000 nM; in experiment [2] it was at most 10000 nM; in experiment [4] it was at most 31.6 nM. The EC50 in experiment [3] is under 10 nM.
`COCc1c(-c2c(Cl)ccc3c(CCCOc4cccc5cc(F)ccc45)c(C(=O)O)n(CCN4CCN(C(=O)COc5cccc6c5CN(C5CCC(=O)NC5=O)C6=O)CC4)c23)c(C)nn1C` (centres unmarked) [Compound 349, 6-Chloro-1-(2-(4-(2-((2-(2,6-dioxopiperidin-3-yl)-1-oxoisoindolin-4-yl)oxy)acetyl)piperazin-1-yl)ethyl)-3-(3-((6-fluoronaphthalen-1-yl)oxy)propyl)-7-(5-(methoxymethyl)-1,3-dimethyl-1H-pyrazol-4-yl)-1H-indole-2-carboxylic acid]: the IC50 in experiment [1] is over 10000 nM; in experiment [2] it was at most 1000 nM; in experiment [4] it was at most 31.6 nM. For the same compound, the EC50 in experiment [3] is under 100 nM.
With `Cc1nn(C)c(C)c1-c1c(Cl)ccc2c(CCCOc3cccc4ccccc34)c(C(=O)O)n(CCN3C[C@@H]4CN(C(=O)COc5cccc6c5C(=O)N(C5CCC(=O)NC5=O)C6=O)C[C@@H]4C3)c12` (stereo partly drawn) [Compound 211, 6-chloro-1-(2-((3aR,6aS)-5-(2-((2-(2,6-dioxopiperidin-3-yl)-1,3-dioxoisoindolin-4-yl)oxy)acetyl)hexahydropyrrolo[3,4-c]pyrrol-2(1H)-yl)ethyl)-3-(3-(naphthalen-1-yloxy)propyl)-7-(1,3,5-trimethyl-1H-pyrazol-4-yl)-1H-indole-2-carboxylic acid], the IC50 is over 10000 nM in experiment [1], at most 3160 nM in experiment [5] and at most 316 nM in experiment [4]. The EC50 in experiment [6] was under 100 nM.
As to `Cc1nn(C)c(C)c1-c1c(Cl)ccc2c(CCCOc3cccc4cc(F)ccc34)c(C(=O)O)n(CCN3CCN(C(=O)Cn4c(C)nc5c(C(=O)NC6CCC(=O)NC6=O)cc(F)cc54)CC3)c12` (centres unmarked) [Compound 278, 6-Chloro-1-{2-[4-(2-{4-[(2,6-dioxopiperidin-3-yl)carbamoyl]-6-fluoro-2-methyl-1H-1,3-benzodiazol-1-yl}acetyl)piperazin-1-yl]ethyl}-3-{3-[(6-fluoronaphthalen-1-yl)oxy]propyl}-7-(1,3,5-trimethyl-1H-pyrazol-4-yl)-1H-indole-2-carboxylic acid], the values for the IC50 in experiment [1], in experiment [2] and in experiment [4] were over 10000 nM, at most 3160 nM and at most 100 nM, respectively. For the same compound, the EC50 in experiment [6] was under 100 nM.
Taken in the same sequence, the figures for `Cc1nn(C)c(C)c1-c1c(Cl)ccc2c(CCCOc3cccc4cc(F)ccc34)c(C(=O)O)n(CCN3CCN(C(=O)COc4c(F)ccc5c4CN(C4CCC(=O)NC4=O)C5=O)CC3)c12` (centres unmarked) [Compound 342, 6-Chloro-1-(2-(4-(2-((2-(2,6-dioxopiperidin-3-yl)-5-fluoro-1-oxoisoindolin-4-yl)oxy)acetyl)piperazin-1-yl)ethyl)-3-(3-((6-fluoronaphthalen-1-yl)oxy)propyl)-7-(1,3,5-trimethyl-1H-pyrazol-4-yl)-1H-indole-2-carboxylic acid] were over 10000 nM, at most 1000 nM, at most 31.6 nM and under 100 nM.
On to `Cc1nn(C)c(C)c1-c1c(Cl)ccc2c(CCCOc3cccc4ccccc34)c(C(=O)O)n(CCN3CCN(C(=O)CNc4cccc5c4C(=O)N(C4CCC(=O)NC4=O)C5=O)CC3)c12` (centres unmarked) [Compound 207, 6-chloro-1-{2-[4-(2-{[2-(2,6-dioxopiperidin-3-yl)-1,3-dioxo-2,3-dihydro-1H-isoindol-4-yl]amino}acetyl)piperazin-1-yl]ethyl}-3-[3-(naphthalen-1-yloxy)propyl]-7-(1,3,5-trimethyl-1H-pyrazol-4-yl)-1H-indole-2-carboxylic acid], for which the figures for the IC50 in experiment [1], in experiment [5] and in experiment [4] were over 10000 nM, at most 1000 nM and at most 316 nM, respectively. The EC50 in experiment [6] is under 100 nM.
On to `Cc1nn(C)c(C)c1-c1c(Cl)ccc2c(CCCOc3cccc4cc(F)ccc34)c(C(=O)O)n(CCN3CCN(C(=O)COc4cccc5c4CN(C4CCC(=O)NC4=O)C5=O)CC3)c12` (atropisomer, axis not shown; (Ra)) [Compound 294, (Ra)-6-Chloro-1-(2-(4-(2-((2-(2,6-dioxopiperidin-3-yl)-1-oxoisoindolin-4-yl)oxy)acetyl)piperazin-1-yl)ethyl)-3-(3-((6-fluoronaphthalen-1-yl)oxy)propyl)-7-(1,3,5-trimethyl-1H-pyrazol-4-yl)-1H-indole-2-carboxylic acid], for which the “Average pIC50 by molecule ARH-77” value in experiment [1] (24 hours incubation) was under 5.0. Further, in experiment [2], the “Average pIC50 by molecule DMS 114” value is given as at least 6.0. For the same compound, in experiment [6], the “AlphaLISA dose response Average pEC50 by molecule” value is given as over 7. For the same compound, in experiment [4] (24 hours incubation), the “Average pIC50 by molecule MV-4-11” value is recorded as at least 7.5.
As to `Cc1nn(C)c(C)c1-c1c(Cl)ccc2c(CCCOc3cccc4cc(F)ccc34)c(C(=O)O)n(CCN3CCN(C(=O)Cn4c(C)nc5c(C(=O)NC6CCC(=O)NC6=O)ccc(Br)c54)CC3)c12` (centres unmarked) [Compound 269, 1-(2-(4-(2-(7-Bromo-4-((2,6-dioxopiperidin-3-yl)carbamoyl)-2-methyl-1H-benzo[d]imidazol-1-yl)acetyl)piperazin-1-yl)ethyl)-6-chloro-3-(3-((6-fluoronaphthalen-1-yl)oxy)propyl)-7-(1,3,5-trimethyl-1H-pyrazol-4-yl)-1H-indole-2-carboxylic acid], the IC50 is over 10000 nM in experiment [1], at most 3160 nM in experiment [2] and at most 100 nM in experiment [4]. Besides, the EC50 is under 10 nM in experiment [3] and under 100 nM in experiment [6].
For `Cc1nn(C)c(C)c1-c1c(Cl)ccc2c(CCCOc3cccc4cc(F)ccc34)c(C(=O)O)n(CCN3CCN(C(=O)Cn4c(C)nc5c(C(=O)NC6CCC(=O)NC6=O)cc(N)cc54)CC3)c12` (centres unmarked) [Compound 275, 1-{2-[4-(2-{6-Amino-4-[(2,6-dioxopiperidin-3-yl)carbamoyl]-2-methyl-1H-1,3-benzodiazol-1-yl}acetyl)piperazin-1-yl]ethyl}-6-chloro-3-{3-[(6-fluoronaphthalen-1-yl)oxy]propyl}-7-(1,3,5-trimethyl-1H-pyrazol-4-yl)-1H-indole-2-carboxylic acid], the IC50 in experiment [1] was over 10000 nM; in experiment [2], at most 3160 nM; in experiment [4] it was at most 100 nM. Further, in experiment [6], the EC50 was under 100 nM.
As for `Cc1nn(C)c(C)c1-c1c(Cl)ccc2c(CCCOc3cccc4cc(F)ccc34)c(C(=O)O)n(CCN3CCN(C(=O)[C@H](C)Oc4cccc5c4C(=O)N([C@H]4CCC(=O)NC4=O)C5=O)CC3)c12` (single isomer, unassigned) [Compound 319], the IC50 was over 10000 nM in experiment [1], at most 3160 nM in experiment [2] and at most 31.6 nM in experiment [4]. Further, the EC50 in experiment [6] was under 100 nM.

Source of the values: patent US20240294499A1, “TARGETED PROTEIN DEGRADATION USING BIFUNCTIONAL COMPOUNDS THAT BIND UBIQUITIN LIGASE AND TARGET MCL-1 PROTEIN” (Captor Therapeutics S.A., priority 2021, published 2024).
